Data as given in patent US8372967B2, “Compounds and methods for modulating expression of GCCR” (Isis Pharmaceuticals, Inc., priority 2006, dated 2013).
Strand notation (5' to 3'): a small letter for the sugar, then the base; units joined by * are phosphorothioate-linked, units joined directly phosphodiester-linked; [ ] holds rarer units or linkages, { } end groups; capitals alone tell only the bases. e = 2'-O-(2-methoxyethyl) (MOE); [5mC] = 5-methylcytosine; d = 2'-deoxy (DNA)

Legend:
[1] = system: PTP1B mRNA; test: Antisense inhibition of human PTP1B in HepG2 cells, 25 nM (Table 85); type: cell-based
Experimental: Short antisense compounds targeted to a PTP1B nucleic acid were tested for their effects on PTP1B mRNA in vitro. Cultured HepG2 cells at a density of 10000 cells per well in a 96-well plate were treated with 25 nM of antisense oligonucleotide. After the treatment period, RNA was isolated from the cells and PTP1B mRNA levels were measured by quantitative real-time PCR, as described herein. PTP1B mRNA levels were adjusted according to total RNA content as measured by RIBOGREEN®. Results are presented as percent inhibition (% Ihib) of PTP1B, relative to untreated control cells.

[2] = system: PTP1B mRNA; test: Antisense inhibition of human PTP1B in HuVEC cells, 3 nM (Table 84); type: cell-based
Experimental: Short antisense compounds targeted to a PTP1B nucleic acid were tested for their effects on PTP1B mRNA in vitro. Cultured HuVEC cells at a density of 5000 cells per well in a 96-well plate were treated as described herein with 3 nM of short antisense compound. After the treatment period, RNA was isolated from the cells and PTP1B mRNA levels were measured by quantitative real-time PCR, as described herein. PTP1B mRNA levels were adjusted according to total RNA content as measured by RIBOGREEN®. Results are presented as percent inhibition of PTP1B (% Inhib), relative to untreated control cells.

[3] = system: PTP1B mRNA; test: Dose response for human PTP1B in HuVEC cells, PPS 198 and PPS 3000 (Tables 86, 87); type: cell-based
Experimental: Human vascular endothelial (HuVEC) cells were plated at a density of 5000 cells per well and treated as described herein with nM concentrations of short antisense compound as indicated in Table 86. After the treatment period, RNA was isolated from the cells and PTP1B mRNA levels were measured by quantitative real-time PCR, as described herein. PTP1B mRNA levels were adjusted according to total RNA content as measured by RIBOGREEN®. Two different human PTP1B primer probe sets were used to measure mRNA levels. Results with Primer Probe Set (PPS) 198 are shown in Table 86, and results with Primer Probe Set (PPS) 3000 are shown in Table 87. Results are presented as percent inhibition of PTP1B mRNA expression relative to untreated control cells.

[4] = system: ApoB mRNA; test: ApoB mRNA level in liver, Balb/c mice dosed i.p. twice per week for three weeks (Table 29); EC50 in liver; type: in vivo, mouse; details: Table 30, Balb/c mice, 2.4 μmol/kg
Experimental: Prior to quantitative PCR analysis, primer-probe sets specific to the target gene being measured were evaluated for their ability to be “multiplexed” with a GAPDH amplification reaction. After isolation the RNA is subjected to sequential reverse transcriptase (RT) reaction and real-time PCR, both of which are performed in the same well. RT and PCR reagents were obtained from Invitrogen Life Technologies (Carlsbad, Calif.). […] The RT reaction was carried out by incubation for 30 minutes at 48° C. Following a 10 minute incubation at 95° C. to activate the PLATIN 9M® Taq, 40 cycles of a two-step PCR protocol were carried out: 95° C. for 15 seconds (denaturation) followed by 60° C. for 1.5 minutes (annealing/extension).
170 μL of RiboGreen® working reagent (RiboGreen® reagent diluted 1:350 in 10 mM Tris-HCl, 1 mM EDTA, pH 7.5) was pipetted into a 96-well plate containing 30 μL purified cellular RNA. The plate was read in a CytoFluor® 4000 (PE Applied Biosystems) with excitation at 485 nm and emission at 530 nm.
(§1) Antisense compound doses included 2.4, 1.2, 0.6, 0.3 and 0.15 μmol/kg. For antisense compounds 14 nucleotides in length, these doses equate to approximately 12, 6, 3, 1.5 or 0.75 mg/kg, respectively. Shown in Table 25 are the sequences and motifs of the antisense compounds used in this study. […] Bolded residues indicate 2′-O-methoxyethyl moieties and italicized residues indicate methyleneoxy (4′-CH2—O-2′) BNAs. The internucleoside linkages of each compound are phosphorothioate throughout. All cytosine residues of ISIS 147764 and ISIS 372938 are replaced by 5-methyl cytosines. For ISIS 387462, only the cytosine residue in the wing of the compound is replaced by 5-methyl cytosine. ApoB antisense compounds are targeted to publicly available ApoB-100 sequences, including Genbank Accession No. XM—137955.5 (SEQ ID NO: 2).
(§2) Forty-eight hours following the final injection, mice were sacrificed to evaluate transaminases (Table 26); liver and kidney weight (Table 27); triglyceride, LDL, HDL and free fatty acid levels (Table 28); target mRNA level in liver (Table 29); target protein level in plasma; and oligonucleotide tissue concentration (Table 30). These endpoints were determined using methods described herein and well known to those of ordinary skill in the art.
The EC50 for ISIS 387462 in the liver was determined by comparing oligonucleotide concentration in the liver to inhibition of ApoB mRNA.

[5] = ALT and AST levels and adverse side effects, ApoB study (Table 26); type: in vivo, mouse; details: Balb/c mice, i.p. twice per week for three weeks, 2.4 μmol/kg, 48 h after final injection
Experimental: as §1, §2

[6] = system: ApoB mRNA; test: ApoB mRNA in liver, Balb/c mice, BNA short antisense compounds twice per week for three weeks (Table 89); type: in vivo, mouse; details: relative to saline
Experimental: The short antisense compounds shown in Table 88 were tested for their effects in vivo. […] A 5-10-5 MOE gapmer was used for a control treatment. Mice were sacrificed approximately 48 hours following the final dose. Liver tissue was collected for RNA isolation, and blood was collected for serum chemistry analyses. ApoB mRNA levels were measured by real-time PCR as described herein. ApoB mRNA levels were normalized to RNA levels as determined by RIBOGREEN, and are presented in Table 89 as percent inhibition relative to ApoB mRNA levels in saline-treated control animals.

[7] = system: ApoB mRNA; test: ApoB mRNA in liver and ED50, single dose of BNA short antisense compounds (Table 92); type: in vivo, mouse; details: ApoB mRNA in liver, Balb/c mice, relative to saline
Experimental: The short antisense compounds tested were ISIS 387462 and ISIS 398296. Each dose group consisted of four animals. A 5-10-5 MOE gapmer was used for a control treatment. Mice were sacrificed approximately 48 hours following the final dose. Liver tissue was collected for RNA isolation, and blood was collected for serum chemistry analyses. ApoB mRNA levels were measured by real-time PCR as described herein. ApoB mRNA levels were normalized to RNA levels as determined by RIBOGREEN, and are presented in Table 92 as percent inhibition relative to ApoB mRNA levels in saline-treated control animals.
At the 8 umol/kg dose, ApoB inhibition by the short antisense compounds was greater than observed with a 5-10-5 MOE gapmer at an equivalent dose. […] Triglycerides were reduced at the highest dose.

## 404138 (antisense e[5mC]*eT*d[5mC]*dA*dG*dT*dG*dT*dG*d[5mC]*dA*d[5mC]*eA*e[5mC]) [compound 404138]
[1]
  % Inhib: 86%
[2]
  % Inhib: 76%

## 399301 (GTGTGCACACAGCT; all C 5-methyl, all phosphorothioate, sugars by position not given here; further chemistry not fully specified) [compound 399301]
[3]; PPS 198, 1.11 nM
  % Inhibition: 8%
[3]; PPS 198, 3.33 nM
  % Inhibition: 63%
[3]; PPS 198, 10.0 nM
  % Inhibition: 91%
[3]; PPS 198, 30.0 nM
  % Inhibition: 97%
[3]; PPS 3000, 1.11 nM
  % Inhibition: 16%
[3]; PPS 3000, 3.33 nM
  % Inhibition: 65%
[3]; PPS 3000, 10.0 nM
  % Inhibition: 93%
[3]; PPS 3000, 30.0 nM
  % Inhibition: 99%
[1]
  % Inhib: 43%
[2]
  % Inhib: 55%

## 404140 (eG*e[5mC]*dA*d[5mC]*dA*d[5mC]*dA*dG*d[5mC]*dT*dG*dA*eG*eG) [compound 404140]
[1]
  % Inhib: 93%
[2]
  % Inhib: 73%

## 147764 (antisense eG*eT*e[5mC]*e[5mC]*e[5mC]*dT*dG*dA*dA*dG*dA*dT*dG*dT*d[5mC]*eA*eA*eT*eG*e[5mC]) [compound 147764]
[4]
  ApoB mRNA level: 58 % of saline control
[5]
  AST: 64.0 IU/L

## 398296 (GGTACATGGAAGTC; 2-10-2 (6'S)-6'-methyl BNA gapmer, chemistry not fully specified) [compound 398296]
[6]; i.p. 0.1 umol/kg twice per week for three weeks
  % Inhib: 17%
[6]; i.p. 0.32 umol/kg twice per week for three weeks
  % Inhib: 35%
[6]; i.p. 1 umol/kg twice per week for three weeks
  % Inhib: 80%
[6]; i.p. 3.2 umol/kg twice per week for three weeks
  % Inhib: 98%
[7]; single i.p. injection 1 umol/kg
  % Inhib: 19%
[7]; single i.p. injection 2 umol/kg
  % Inhib: 54%
[7]; single i.p. injection 4 umol/kg
  % Inhib: 81%
[7]; single i.p. injection 8 umol/kg
  % Inhib: 97%
